Values quoted from earlier work as cited in patent US10279004B2, “Methods and compositions for enhancing or maintaining fertility” (Quality IP Holdings, LLC, priority 2016, dated 2019).

Key:
hGH = conditions: for effect on hGH: other amino acids, literature
[1] = subcutaneous injection of 0.06 IU in hGH deficient subjects

Row | Compound | effect on hGH (hGH) | further results
1 | N=C(N)NCCC[C@H](N)C(=O)O [arginine] |  | elevation of serum hGH levels (hGH; 30 g in males): 8.6 fold; increase in hGH levels (hGH; intravenous infusion of 183 mg/kg body weight in females): > 20 fold
2 | N[C@@H](Cc1c[nH]cn1)C(=O)O [histidine] | marked increases in hGH | 
3 | NCCCC[C@H](N)C(=O)O [lysine] | marked increases in hGH | 
4 | CSCC[C@H](N)C(=O)O [methionine] | marked increases in hGH | 
5 | NCCC[C@H](N)C(=O)O [ornithine] | marked increases in hGH | 
6 | N[C@@H](Cc1ccccc1)C(=O)O [phenylalanine] | marked increases in hGH | 
7 | hGH: human growth hormone, available in injectable forms |  | probability of clinical pregnancy (administration during ovarian stimulation phase of IVF cycles): increase the probability of clinical pregnancy; body composition in hGH-deficient adults (within months of hGH treatment): gains in lean body mass, skin thickness, and muscle mass are observed; mean level of hGH reached [1]: 0.4 ng/mL
